According to publication PMC12040169 (PLOS Biology, 2025):

Assay: in vitro
Details: human, hela cells, % viability

SMILES | viability at 28.5 h, 10 µM
CS(=O)(=O)Nc1ccc(-c2cccc(C(F)(F)F)c2)c2ccccc12 [CBK083746] | 95.4%
O=C1NC2(CCNCC2)Oc2ccc(-c3cccc4ncccc34)cc21 [CBK083775T] | 95.3%
Clc1ccc(COc2cc(N3CCCN(Cc4ccccc4-c4ccccc4)CC3)ncn2)cc1Cl [CBK083781T] | 98.4%
CCN1CCCN(c2cc(OCc3ccc(Cl)c(Cl)c3)ncn2)CC1 [CBK083786] | 92.3%
NC(=O)CN1CCCN(c2ccnc(OCCN3CCOCC3)n2)CC1 [CBK083804] | 89.9%
c1ccc(CCN2CCCN(c3ccnc(OCCN4CCOCC4)n3)CC2)nc1 [CBK083813] | 94.9%
COc1ccc(CN2CCCN(c3nccc(OCc4cc(C)on4)n3)CC2)cc1 [CBK083911] | 100%
Cc1cc(COc2ccnc(N3CCCN(CCCO)CC3)n2)no1 [CBK083917] | 98.4%
CSCCN1CCCN(c2nccc(OCc3ccc(Cl)c(Cl)c3)n2)CC1 [CBK083960] | 70.5%
Clc1ccc(COc2ccnc(N3CCCN(CC4CC4)CC3)n2)cc1Cl [CBK083963] | 81.3%
c1ccc2c(c1)OCC(COc1ccnc(N3CCCN(CCN4CCOCC4)CC3)n1)O2 (centres unmarked) [CBK083976] | 116%
CSCCN1CCCN(c2nccc(OCC3COc4ccccc4O3)n2)CC1 (centres unmarked) [CBK083978] | 91.1%
c1ccc(OCCN2CCCN(c3nccc(OCC4COc5ccccc5O4)n3)CC2)cc1 (centres unmarked) [CBK083980] | 94%
c1ccc2c(c1)OCC(COc1ccnc(N3CCCN(CC4CCCCC4)CC3)n1)O2 (centres unmarked) [CBK083982] | 115%
COc1ccnc(N2CCCN(CCc3ccc(OC)c(OC)c3)CC2)n1 [CBK084002] | 85%
CS(=O)(=O)N1CC2(CCN(Cc3ccccc3)CC2)c2ccccc21 [CBK084003] | 89.9%
CS(=O)(=O)N1CC2(CCN(Cc3cccnc3)CC2)c2ccccc21 [CBK084006] | 98.1%
CS(=O)(=O)N1CC2(CCN(CCCC#N)CC2)c2ccccc21 [CBK084014] | 97.9%
CS(=O)(=O)N1CC2(CCN(CCc3ccccc3)CC2)c2ccccc21 [CBK084015] | 88.3%
Cc1cc(COc2ccnc(N3CCCN(CC(N)=O)CC3)n2)no1 [CBK084036] | 85.9%
NC(=O)CN1CCCN(c2nccc(OCC3COc4ccccc4O3)n2)CC1 (centres unmarked) [CBK084041] | 115%
CCN(CC)C(=O)CN1CCCN(c2nccc(OCCN3CCOCC3)n2)CC1 [CBK084094] | 99.5%

SMILES | viability at 28.5 h, 10 µM
CS(=O)(=O)N1CC2(CCN(CCc3ccc(F)cc3)CC2)c2ccccc21 [CBK084103] | 93.3%
COc1ccnc(N2CCCN(CCCC#N)CC2)n1 [CBK084124] | 88.4%
COc1ccc(Oc2nccc(N3CCCN(Cc4ccc(C(F)(F)F)cc4)CC3)n2)cc1OC [CBK084152] | 98.2%
COc1ccc(Oc2nccc(N3CCCN(CCCO)CC3)n2)cc1OC [CBK084158] | 93.5%
Cc1cc(COc2nccnc2N2CCN(Cc3ccc(C(C)C)cc3)CC2)no1 [CBK084186] | 94.9%
Cc1cc(COc2nccnc2N2CCN(Cc3ccc([N+](=O)[O-])cc3)CC2)no1 [CBK084189] | 92%
Cc1cc(COc2nccnc2N2CCN(CCCC#N)CC2)no1 [CBK084198] | 93.5%
Cc1cc(COc2nccnc2N2CCN(CC3CCCCC3)CC2)no1 [CBK084205] | 94.2%
COc1ccc(CN2CCN(c3nccnc3OC)CC2)cc1 [CBK084216] | 89.6%
COc1nccnc1N1CCN(CC(N)=O)CC1 [CBK084219] | 98.4%
CCN(CC)C(=O)CN1CCN(c2nccnc2OC)CC1 [CBK084221] | 83.9%
COc1nccnc1N1CCN(CCCn2c(=O)[nH]c3ccccc32)CC1 [CBK084226] | 95.8%
COc1nccnc1OC1CCN(Cc2ccc(C(F)(F)F)cc2)CC1 [CBK084243] | 79.3%
COc1nccnc1OC1CCN(CC(N)=O)CC1 [CBK084248] | 86.7%
COc1nccnc1OC1CCN(CCCO)CC1 [CBK084254] | 97.6%
COc1nccnc1OC1CCN(CCc2ccccc2)CC1 [CBK084258] | 95%
COc1nccnc1OC1CCN(CCc2ccc(F)cc2)CC1 [CBK084259] | 102%
COc1nccnc1OC1CCN(CCc2ccc3ccccc3c2)CC1 [CBK084264] | 107%
CS(=O)(=O)Nc1nccnc1N1CCN(Cc2ccc(Cl)c(Cl)c2)CC1 [CBK084267] | 98.7%
CS(=O)(=O)Nc1nccnc1N1CCN(Cc2ccc([N+](=O)[O-])cc2)CC1 [CBK084274] | 103%
CS(=O)(=O)Nc1nccnc1OC1CCN(CCCO)CC1 [CBK084275] | 90.9%
CS(=O)(=O)Nc1nccnc1OC1CCN(CCCC#N)CC1 [CBK084276] | 99.4%

SMILES | viability at 28.5 h, 10 µM
CS(=O)(=O)Nc1nccnc1OC1CCN(CCCn2c(=O)[nH]c3ccccc32)CC1 [CBK084277] | 91.8%
CS(=O)(=O)Nc1nccnc1OC1CCN(CCc2ccccc2)CC1 [CBK084279] | 98.3%
CS(=O)(=O)Nc1nccnc1OC1CCN(CCc2c[nH]c3ccccc23)CC1 [CBK084282] | 119%
O=C1CCC(=O)N1CCOc1nccnc1N1CCN(Cc2ccc(Cl)c(Cl)c2)CC1 [CBK084287] | 92.9%
O=C1CCC(=O)N1CCOc1nccnc1N1CCN(Cc2ccc([N+](=O)[O-])cc2)CC1 [CBK084294] | 93%
CCN(CC)C(=O)CN1CCN(c2nccnc2OCCN2C(=O)CCC2=O)CC1 [CBK084297] | 102%
O=C1CCC(=O)N1CCOc1nccnc1N1CCN(CCCn2c(=O)[nH]c3ccccc32)CC1 [CBK084300] | 110%
CSCCN1CCN(c2nccnc2OCCN2C(=O)CCC2=O)CC1 [CBK084301] | 105%
Nc1ccc(-c2ccc(OC(F)(F)F)cc2)c2ccccc12 [CBK084327] | 84.6%
O=C1CCC(=O)N1CCOc1nccnc1OC1CCN(Cc2ccc(Cl)c(Cl)c2)CC1 [CBK084335] | 96.2%
O=C1CCC(=O)N1CCOc1nccnc1OC1CCN(Cc2ccccc2F)CC1 [CBK084337] | 96.4%
O=C1CCC(=O)N1CCOc1nccnc1OC1CCN(Cc2ccc(Cl)cc2)CC1 [CBK084338] | 108%
O=C1CCC(=O)N1CCOc1nccnc1OC1CCN(Cc2ccc([N+](=O)[O-])cc2)CC1 [CBK084343] | 95.7%
O=C1CCC(=O)N1CCOc1nccnc1OC1CCN(Cc2ccccc2-c2ccccc2)CC1 [CBK084344] | 110%
O=C1CCC(=O)N1CCOc1nccnc1OC1CCN(CCOc2ccccc2)CC1 [CBK084354] | 101%
COc1ccc(CCN2CCC(Oc3nccnc3OCCN3C(=O)CCC3=O)CC2)cc1OC [CBK084359] | 109%
Clc1ccc(CN2CCC(Oc3cncc(OCC4COc5ccccc5O4)n3)C2)cc1 (centres unmarked) [CBK084364] | 94.7%
c1cncc(CN2CCC(Oc3cncc(OCC4COc5ccccc5O4)n3)C2)c1 (centres unmarked) [CBK084365] | 96.5%
NC(=O)CN1CCC(Oc2cncc(OCC3COc4ccccc4O3)n2)C1 (centres unmarked) [CBK084372] | 98.2%
Cc1cccc(C)c1NC(=O)CN1CCC(Oc2cncc(OCC3COc4ccccc4O3)n2)C1 (centres unmarked) [CBK084373] | 98.5%
CCN(CC)C(=O)CN1CCC(Oc2cncc(OCC3COc4ccccc4O3)n2)C1 (centres unmarked) [CBK084374] | 102%
CCOC(=O)CN1CCC(Oc2cncc(OCC3COc4ccccc4O3)n2)C1 (centres unmarked) [CBK084375] | 92.6%

SMILES | viability at 28.5 h, 10 µM
O=c1[nH]c2ccccc2n1CCCN1CCC(Oc2cncc(OCC3COc4ccccc4O3)n2)C1 (centres unmarked) [CBK084380] | 94.4%
CSCCN1CCC(Oc2cncc(OCC3COc4ccccc4O3)n2)C1 (centres unmarked) [CBK084381] | 105%
c1ccc(CCN2CCC(Oc3cncc(OCC4COc5ccccc5O4)n3)C2)cc1 (centres unmarked) [CBK084382] | 93%
c1ccc2c(c1)OCC(COc1cncc(OC3CCN(CC4CCCCC4)C3)n1)O2 (centres unmarked) [CBK084387] | 109%
COc1ccc(CCN2CCC(Oc3cncc(OCC4COc5ccccc5O4)n3)C2)cc1OC (centres unmarked) [CBK084389] | 112%
COc1ccc(Oc2cncc(OC3CCN(Cc4ccc(Cl)c(Cl)c4)C3)n2)cc1OC (centres unmarked) [CBK084391] | 115%
COc1ccc(Oc2cncc(OC3CCN(CC(N)=O)C3)n2)cc1OC (centres unmarked) [CBK084402] | 93.8%
COc1ccc(Oc2cncc(OC3CCN(CC(=O)Nc4c(C)cccc4C)C3)n2)cc1OC (centres unmarked) [CBK084403] | 101%
CCN(CC)C(=O)CN1CCC(Oc2cncc(Oc3ccc(OC)c(OC)c3)n2)C1 (centres unmarked) [CBK084404] | 93.9%
COc1ccc(Oc2cncc(OC3CCN(CCCn4c(=O)[nH]c5ccccc54)C3)n2)cc1OC (centres unmarked) [CBK084406] | 97.6%
COc1ccc(Oc2cncc(OC3CCN(CCc4ccc(F)cc4)C3)n2)cc1OC (centres unmarked) [CBK084409] | 94.1%
COc1ccc(Oc2cncc(OC3CCN(CC4CC4)C3)n2)cc1OC (centres unmarked) [CBK084412] | 89.3%
O=[N+]([O-])c1ccc(CN2CCC(Oc3cncc(OCc4ccc(Cl)c(Cl)c4)n3)C2)cc1 (centres unmarked) [CBK084426] | 97.1%
NC(=O)CN1CCC(Oc2cncc(OCc3ccc(Cl)c(Cl)c3)n2)C1 (centres unmarked) [CBK084429] | 101%
Clc1ccc(COc2cncc(OC3CCN(CC4CC4)C3)n2)cc1Cl (centres unmarked) [CBK084443] | 86.5%
Clc1ccc(CN2CCC(Oc3cncc(OCc4cccnc4)n3)C2)cc1Cl (centres unmarked) [CBK084448] | 84%
NC(=O)CN1CCC(Oc2cncc(OCc3cccnc3)n2)C1 (centres unmarked) [CBK084459] | 98%
Cc1cccc(C)c1NC(=O)CN1CCC(Oc2cncc(OCc3cccnc3)n2)C1 (centres unmarked) [CBK084460] | 87.6%
CCN(CC)C(=O)CN1CCC(Oc2cncc(OCc3cccnc3)n2)C1 (centres unmarked) [CBK084461] | 92.4%
Clc1ccc(CN2CCC(Oc3cncc(OCCN4CCOCC4)n3)C2)cc1Cl (centres unmarked) [CBK084477] | 91.4%
